# Legend:
# [1] = biological target: T1, CSK (Tyrosine-protein kinase CSK) (Homo sapiens, UniProt P41240); experiment: SILAC LC-MS ATP acyl phosphate probe competition, native kinases in HEK293T; assay type: binding; conditions: site ACT; ATP 1 mM; Ketanserin, Ritanserin 100 μM; RF001 1 mM
# T1 construct: measured against >50 native kinases quantified in HEK293T soluble proteomes; endogenous in cells; host or cells: HEK293T soluble proteome
# Procedure, shortened: (§1)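 First, HEK293T proteomes at 2 mg/ml in kinase buffer were exposed to compound (heavy) or DMSO (light) for 30 min at 25° C. Next, samples were pooled 1:1 and trypsin/Lys-C digested. Finally, desthiobiotin peptides were enriched on avidin and measured by data-dependent LC-MS/MS.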
# [2] = biological target: T2, M4K3 (Mitogen-activated protein kinase kinase kinase kinase 3) (Homo sapiens, UniProt Q8IVH8); experiment: as above; assay type: binding; conditions: site Lys2; ATP 1 mM; Ketanserin, Ritanserin 100 μM; RF001 1 mM
# T2 construct: Native kinases; endogenous in cells; host or cells: HEK293T soluble proteome
# T2 sequence (Q8IVH8 1-894): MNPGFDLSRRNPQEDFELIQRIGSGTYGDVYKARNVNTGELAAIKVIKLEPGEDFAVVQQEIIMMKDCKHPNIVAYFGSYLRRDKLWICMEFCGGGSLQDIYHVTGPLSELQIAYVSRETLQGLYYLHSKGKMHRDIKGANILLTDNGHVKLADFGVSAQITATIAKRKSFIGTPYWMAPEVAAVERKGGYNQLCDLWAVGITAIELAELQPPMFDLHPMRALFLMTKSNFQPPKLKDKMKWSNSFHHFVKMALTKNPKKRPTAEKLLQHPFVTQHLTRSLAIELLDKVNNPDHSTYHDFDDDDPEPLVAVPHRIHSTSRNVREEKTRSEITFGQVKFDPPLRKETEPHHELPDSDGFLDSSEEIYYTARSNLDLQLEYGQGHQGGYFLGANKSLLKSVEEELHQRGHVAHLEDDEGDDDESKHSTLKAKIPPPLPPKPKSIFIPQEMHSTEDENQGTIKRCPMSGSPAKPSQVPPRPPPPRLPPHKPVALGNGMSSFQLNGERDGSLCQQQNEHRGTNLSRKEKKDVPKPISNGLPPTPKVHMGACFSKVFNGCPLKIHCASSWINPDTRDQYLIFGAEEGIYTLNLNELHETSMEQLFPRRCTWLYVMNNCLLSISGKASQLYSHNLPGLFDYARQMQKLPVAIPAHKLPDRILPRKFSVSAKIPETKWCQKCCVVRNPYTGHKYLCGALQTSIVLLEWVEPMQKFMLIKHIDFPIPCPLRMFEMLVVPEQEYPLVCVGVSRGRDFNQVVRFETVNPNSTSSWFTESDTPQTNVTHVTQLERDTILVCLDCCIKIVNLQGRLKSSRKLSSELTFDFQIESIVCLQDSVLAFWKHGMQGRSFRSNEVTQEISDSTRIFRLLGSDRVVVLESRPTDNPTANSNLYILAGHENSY
# Procedure, shortened: as §1
"SILAC ratio, CSK probe-modified peptide [1]","SILAC ratio, M4K3 probe-modified peptide [2]",Structure (SMILES)
1.1,1.1,"Fc1ccc(C(=C2CCNCC2)c2ccc(F)cc2)cc1 [RF001, 4-(Bis(4-fluorophenyl)methylene) piperidine]"
1.2,1.4,O=C(c1ccc(F)cc1)C1CCN(CCn2c(=O)[nH]c3ccccc3c2=O)CC1 [Ketanserin]

Structure (SMILES),"SILAC ratio, CSK probe-modified peptide [1]","SILAC ratio, M4K3 probe-modified peptide [2]"
Cc1nc2sccn2c(=O)c1CCN1CCC(=C(c2ccc(F)cc2)c2ccc(F)cc2)CC1 [Ritanserin],1.8,1.8

# Source: patent publication US12643867B2, “Compositions and uses thereof” (University of Virginia Patent Foundation, priority 2017, dated 2026)
